Measured values published in publication PMC12301034, “Design and Synthesis of Boronic Chalcones with Dual Anticancer and Anti-Inflammatory Activity” (Molecules, 2025).
Entries after “also recorded” stand apart in the source; their conditions may differ. Read-outs that look alike come from different tables or passages of the source.

Legend:
SCC-25 cells = test: MTT cytotoxicity assay on SCC-25 cells; assay type: cell-based, human; conditions: Homo sapiens, SCC-25; MTT, 24 h incubation, mean SEM of three experiments
Source text: The SCC-25 (ATCC® CRL-1628™), Detroit-562 (ATCC® CCL-138™), and THP-1 (ATCC® TIB-202™) cells were purchased from Rio de Janeiro Cell Bank (Duque de Caxias, Brazil), and NOK-si was kindly provided by Prof. Carlos Rossa from the School of Dentistry—UNESP. All the cells were cultivated according to standard conditions. Human colorectal adenocarcinoma HCT116 cell lines (ATCC® CCL-247™) expressing p53 and its p53-null isogenic derivative (HCT116 p53^−/−) were provided by B. Vogelstein (The Johns Hopkins Kimmel Cancer Center, Baltimore, MD, USA).
Cells (NOK-si, SCC-25, and Detroit-562) were grown in a DMEM medium (Dulbecco’s Modified Eagle Medium), supplemented according to the needs of each lineage, as recommended by its cell banks, with 2 mM L-glutamine, 10% or 20% fetal bovine serum (FBS), 1% antibiotic–antimycotic solution (5 mg/mL penicillin, 5 mg/mL streptomycin, and 10 mg/mL neomycin), 4.5 g/L of glucose, and 3.7 g/L of sodium bicarbonate (NaHCO3). All cell lines were cultured in flasks at 37 °C in 5% carbon dioxide (CO2) and 95% of relative humidity. The assays were conducted between the third- and the seventh-cell passage, with sub-cultures every 3–4 days to maintain exponential growth. The cell viability was checked using the trypan blue dye exclusion assay for all experiments, where over 95% of the cells were viable at the beginning of the tests. NOK-si, SCC-25, and Detroit-562 were initially thawed and cultured in 25 cm^2 cell culture flasks. Cell growth was monitored using a microscope, and the culture medium was changed periodically. Upon reaching confluency, cell dissociation was achieved by adding 5 mL of trypsin (Sigma-Aldrich, St Louis, MO, USA) and incubating the bottles in a CO2 incubator for 10 min. Subsequently, the cells were transferred to 15 mL Falcon tubes and centrifuged at 2000 rpm for 10 min. Cell counting was performed using a Countess II FL automated cell counter (ThermoFischer, Waltham, MA, USA). The cells were seeded at a density of 30,000 cells per well in 96-well plates. The plates were then incubated at 37 °C in 5% CO2 for 24 h. Following this, test compounds were incubated for another 24 h at 10 different concentrations: 50, 25, 12.5, 6.25, 3.12, 1.56, 0.78, 0.39, 0.19, and 0.097 µg/mL. After the specified time, MTT reagent (3 mg/mL) (Sigma-Aldrich, St Louis, MO, USA) dissolved in phenol-free RPMI 1640 was added and incubated for 4 h. The formed MTT crystals were solubilized using 2-propanol P.A. (Sigma-Aldrich, St Louis, MO, USA) with agitation. Absorbance was read at 562 nm using an EZ Read 400 microplate reader (Biochrom, Cambridge, UK) and ADAP 2.0 Biochrom software (version 2.0). IC50 values and graphs were calculated using Excel and Prism software (version 10.4.1). The MTT assay results were evaluated for normality using the Shapiro–Wilk test, followed by one-way ANOVA with Tukey’s post hoc test at a significance level of 5%.

IL-6 = test: Anti-inflammatory assay, IL-6 in LPS-stimulated THP-1 cells (CBA); assay type: cell-based, human; conditions: 2 and 4 µg/mL, 24 h
Description: (§1) For this assay, THP-1 (BCRJ cód. 0234) cells were cultured in Roswell Park Memorial Institute (RPMI-1640, Sigma-Aldrich; Saint Louis, MO, USA) media supplemented with 2 mM L-glutamine, 1 mM sodium pyruvate, 1.50 g/L of sodium bicarbonate, and 10% fetal bovine serum. For obtaining Macrophage-like cells, 250,000 cells per well were plated in a 24-well cell culture plate. A total of 20 ng/mL of Forbol 12-miristato-13-acetato (PMA) was added to each well, and the cells were incubated for 48 h at 37 °C with 5% CO2. After the 48 h, the wells were washed with 1X PBS, and fresh RPMI-1640 media was added. The cells were then incubated for 24 h at 37 °C and 5% CO2. For the cell’s stimulations, after the 24 h, the well was washed with PBS and fresh RPMI1640 media without fetal bovine serum added. For the positive controls of the assay, 3 wells were stimulated with LPS (1 ng/µL) diluted in the same volume and media used for the drugs stimulation. Two different concentrations (2 and 4 µg/mL) were evaluated for each molecule, which were determined to be non-cytotoxic through a cell viability assay. After a 24 h period, the supernatant was removed and used in the cytokine quantification assay. A kit for inflammatory cytokines, BD® Cytometric Bead Array CBA Human Inflammatory, was employed for this assay, containing the following human cytokines: IL-8, IL-1β, IL-6, and TNF. […]

IL-1β = test: Anti-inflammatory assay, IL-1β in LPS-stimulated THP-1 cells (CBA); assay type: cell-based, human; conditions: 2 and 4 µg/mL, 24 h
Description: as §1

IL-8 = test: Anti-inflammatory assay, IL-8 in LPS-stimulated THP-1 cells (CBA); assay type: cell-based, human; conditions: 2 and 4 µg/mL, 24 h
Description: as §1

[1] = Metabolic stability in human liver microsomes; assay type: in vitro ADME
Description: The metabolic stability of test compounds and controls [imipramine (Sigma-Aldrich, St. Louis, MO, USA), verapamil (Sigma-Aldrich, St. Louis, MO, USA), and warfarin (Sigma-Aldrich, St. Louis, MO, USA)] were assessed using human pooled liver human microsomes (20 mg/mL) (GIBCO, Frederick, MD, USA) and pooled liver CD1 mouse microsomes (20 mg/mL) (GIBCO, Frederick, MD, USA). […] Microsomal suspensions were thawed and diluted in phosphate buffer to obtain a final concentration of 0.25 mg/mL. A solution of NADPH (Sigma-Aldrich, St. Louis, MO, USA) at […] was also prepared in phosphate buffer. […] The plate was incubated at 37 °C under shaking (100 rpm). […] The reactions were stopped by adding quenching solution (75 μL) consisting of acetonitrile:methanol (1:1) with an internal standard (50 nM). Samples were centrifuged (3500 rpm, 30 min) to remove precipitated microsomal proteins, and the supernatant fractions were analyzed by an LCMS-8045 system (Shimazu, Kyoto, Japan). The chromatographic analysis was performed using a Supelco Ascentis Express C18 column (3 cm × 2.1 mm, 5 μm). The mobile phases consisted of water + 0.1% formic acid (A) and acetonitrile + 0.1% formic acid (B). […] The run time was 2 min, with a sample injection volume of 10 μL and a flow rate of 0.7 mL/min. Metabolic stability was assessed by calculating the peak area ratios (analyte/internal standard) and converting them into the percentage of the compound remaining, using the area ratio at time 0 as 100%.

intrinsic clearance (Clint) in HLM [1]: high clearance
microsomal CLint at 0.51 μM ([1]; human, microsomes, pH 7.4): 56.8 µL/min/mg
half-life at 0.51 μM ([1]; human, pooled liver microsomes, pH 7.4, read-out: Human Liver Microsome (HLM) T1/2): 48.8 min
microsomal CLint at 0.51 μM ([1]; human, pooled liver microsomes, pH 7.4, read-out: intrinsic clearance (Clint) in HLM): 77 µL/min/mg
SMILES: COc1cccc(C(=O)/C=C/c2cccc(B(O)O)c2)c1 [Compound 5, (E)-(3-(3-(3-methoxyphenyl)-3-oxoprop-1-en-1-yl)phenyl)boronic acid]
IC50 (SCC-25 cells): 17.9 ± 0.35 µM
reduction of IL-6 levels (IL-6): significantly reduced; also recorded: pronounced reduction
reduction of IL-1β levels (IL-1β): comparable efficacy in reducing cytokine levels relative to LPS-stimulated cells
reduction of IL-8 levels (IL-8): effectively reduced cytokine levels
